{
  "source": "patent US10471111B2",
  "about": "“Lactobacillus and composition for preventing, improving, or treating degenerative brain diseases or cognitive function disorders” (University-Industry Cooperation Group of Kyung Hee …, priority 2015, dated 2019)",
  "assay_type_in_all_cases": "in vivo, ICR male mice",
  "key": {"[1]": {"system": "mice induced to have memory impairment by scopolamine", "test": "Passive Avoidance test, memory impairment by scopolamine", "details": "scopolamine 1 mg/kg; lactic acid bacteria 1×10^9 CFU or donepezil 5 mg/kg daily for three days; measured up to 300 seconds", "from_the_text": "In the Passive Avoidance test apparatus, which is divided into the first and second space, there is a guillotine-like door that connects the two spaces. By using lightings, the first space was kept bright while the second space was kept dark. On the floor of the second space that was kept dark was placed an electric grid that flowed 0.5 mA of electric shock for three seconds in the case of the animal moving to the dark space.\n(§1) The selected 13 types of lactic acid bacteria were each suspended in physiological saline at the concentration of 1×10^10 CFU/ ? , and then the suspension was administered to mice of the test animal (5-week-old ICR male mice from Raonbio), at the dosage of 0.1 ? (equivalent to 1×10^9 CFU of lactic acid bacteria) on a daily basis for three days. […]\nOn the third day after administering the drug, an hour after administering lactic acid bacteria or positive control drug, 1 mg/kg (body weight) of scopolamine (cholinergic blocking drug inducing cognitive ability disorder or memory damage), dissolved in distilled water, was administered in the abdomen while the normal group was administered with physiological saline in the abdomen. […] With 10 seconds of observation, the guillotine-like door is opened, the time that the mice in each experimental group took to have all of their four feet inside the second space was measured up to 300 seconds, whose result is shown in Table 8. […]"}, "[2]": {"system": "mice induced to have memory impairment by Proteus mirabilis K21", "test": "Y-maze test, memory impairment by Proteus mirabilis K21", "details": "Proteus mirabilis K21 1×10^9 CFU for five days, then lactic acid bacteria 1×10^9 CFU or donepezil 5 mg/kg daily for five days", "procedure": "Proteus mirabilis K21 separated from the animal with damaged memory was administered to the mice to induce memory impairment (similar symptoms to […]), and Y-maze test was conducted to measure the improvement effect of lactic acid bacteria for cognitive ability.\nIn more detail, Proteus mirabilis K21 was administered to a mouse (5-week-old ICR male mice from Raonbio) that was fed for a week in the animal laboratory at the dosage of 1×10^9 CFU on a daily basis for five days to induce memory impairment. In the meantime, the normal group was administered with physiological saline instead of Proteus mirabilis K21. […]\nAn hour after the final administration of drug, the mouse was carefully placed in one of the three arms, A, B, and C, in the Y-maze and allowed to freely move for eight minutes, and then the arm in which the mouse moved was recorded. In the experiment, the arm was recorded as an arm in which the test animal moved only when the entire body including the tail was inside the arm, or when the mouse moved back in. […] The experimental result was calculated by the formula below (Sarter, M. et al., Psychopharmacology., 94, pp 491-495, 1998), as shown in Table 12 below. […]"}, "[3]": {"system": "mice induced to have memory impairment by scopolamine", "test": "Y-maze test, memory impairment by scopolamine", "procedure": "Apparatus used in the Y-maze test consists of three arms with each being 42 cm in length, 3 cm in width and 12 cm in height. The three arms, made from black polyvinyl resin, were placed at an angle of 120 degrees.\nas §1\nAn hour after the final administration of lactic acid bacteria or positive control drug, 1 mg/kg (body weight) of scopolamine (cholinergic blocking drug inducing cognitive ability disorder or memory impairment), dissolved in distilled water, was administered in the abdomen while the normal group was administered with physiological saline in the abdomen. half an hour after the administration of scopolamine, the mouse was carefully placed in one of the three arms, A, B, and C, in the Y-maze and allowed to freely move for eight minutes, and then the arm in which the mouse moved was recorded. In the experiment, the arm was recorded as a case in which the test animal moved only when the entire body including the tail was inside the arm, or when the mouse moved back in. […]"}},
  "data": [
    {"smiles": "COc1cc2c(cc1OC)C(=O)C(CC1CCN(Cc3ccccc3)CC1)C2", "note": "(stereo not shown) [donepezil]", "values": [
      {"measurement": "Latency time", "setting": "[1]", "value": 66.4, "unit": "s"},
      {"measurement": "Alternation behavior", "setting": "[2]", "value": 58.6, "unit": "%"},
      {"measurement": "Alternation behavior", "setting": "[3]; Y-maze test, Table 11, scopolamine, red bean suspension or ferment 0.2 g per mouse, CJLJ103 2 × 10^8 CFU per mouse daily", "value": 63.2, "unit": "%"},
      {"measurement": "Alternation behavior", "setting": "[3]; scopolamine 1 mg/kg, lactic acid bacteria 1×10^9 CFU or donepezil 5 mg/kg daily for three days", "value": 65.8, "unit": "%"}
    ]}
  ]
}
